Results from patent US7163952B2, “Azole compound and medicinal use thereof” (Japan Tobacco Inc., priority 2001, dated 2007).

| melting point | SMILES |
| --- | --- |
| 220 °C (dec.) | O=C(O)c1ccc(Cc2nc(-c3ccc(NC(=O)c4ccc(-n5cccc5)cc4)cc3)cs2)cc1 [Example 70, 4-(4-(4-(4-(1-pyrrolyl)benzoylamino)phenyl)-2-thiazolylmethyl)benzoic acid] |
| 132 to 134 °C | CC(C)CSc1ccc(CN(C)c2ccc(-c3csc(N(C)Cc4ccc(C(=O)O)cc4)n3)cc2)cc1 [Example 245, 4-((N-(4-(4-(N-(4-isobutylsulfanylbenzyl)-N-methylamino)phenyl)-2-thiazolyl)-N-methylamino)methyl)benzoic acid] |
| 248 to 251 °C | O=C(O)c1ccc(C2(c3nc(-c4ccc(OCc5ccc(C6CCCCC6)cc5)cc4)cs3)CCCC2)cc1 [Example 91, 4-(1-(4-(4-(4-cyclohexylbenzyloxy)phenyl)-2-thiazolyl)cyclopentyl)benzoic acid] |
| 122 to 127 °C | CN(Cc1ccc(C(=O)O)cc1)c1nc(-c2ccc(CN3CCN(C(=O)OCc4ccccc4)CC3)cc2)cs1 [Example 243, benzyl 4-(4-(2-(N-(4-carboxybenzyl)-N-methylamino)-4-thiazolyl)benzyl)-piperazine-1-carboxylate] |
| 194 to 196 °C | O=C(O)c1ccc(N(Cc2ccc(C(F)(F)F)cc2)c2nc(-c3cc(Cl)ccc3OCc3ccccc3)cs2)cc1 [Example 159, 4-(N-(4-(2-benzyloxy-5-chlorophenyl)-2-thiazolyl)-N-(4-trifluoromethylbenzyl)amino)benzoic acid] |
| 238 to 240 °C | CC(C)N(c1ccc(C(=O)O)cc1)c1nc(-c2ccc(OCc3ccc(C4CCCCC4)cc3)cc2)cs1 [Example 24, 4-(N-(4-(4-(4-cyclohexylbenzyloxy)phenyl)-2-thiazolyl)-N-isopropylamino)benzoic acid] |
| 152 to 160 °C | CC1CC(C)CN(c2ccc(C(=O)Nc3ccc(-c4csc(N(c5ccc(C(=O)O)cc5)C(C)C)n4)cc3)cc2)C1.Cl (centres unmarked) |
| 196 to 197 °C | CC(C)N(Cc1cccc(C(=O)O)c1)c1nc(-c2ccc(OCc3ccc(C4CCCCC4)cc3)cc2)cs1 [Example 87, 3-((N-(4-(4-(4-cyclohexylbenzyloxy)phenyl)-2-thiazolyl)-N-isopropylamino)methyl)benzoic acid] |
| 230 °C (dec.) | CC(C)N(c1ccc(C(=O)O)cc1)c1nc(-c2ccc(NC(=O)c3ccc(C4CCCCC4)cc3)cc2)cs1 [Example 10, 4-(N-(4-(4-(4-cyclohexylbenzoylamino)phenyl)-2-thiazolyl)-N-isopropylamino)benzoic acid] |
| 230 °C (dec.) | O=C(O)c1ccc(Cc2nc(-c3ccc(NC(=O)c4ccc(C5CCCCC5)cc4)cc3)cs2)cc1 [Example 68, 4-(4-(4-(4-cyclohexylbenzoylamino)phenyl)-2-thiazolylmethyl)benzoic acid] |
| 230 °C (dec.) | O=C(O)c1ccc(Nc2nc(-c3ccc(OCc4ccc(C5CCCCC5)cc4)cc3)cs2)c(OCc2ccccc2)c1 [Example 73, 3-benzyloxy-4-(4-(4-(4-cyclohexylbenzyloxy)phenyl)-2-thiazolylamino)benzoic acid] |
| 132 to 134 °C | CC(C)N(Cc1ccc(C(=O)O)cc1)c1nc(-c2ccc(NS(=O)(=O)c3ccc(C(F)(F)F)cc3)cc2)cs1 [Example 106, 4-((N-isopropyl-N-(4-(4-(4-trifluoromethylbenzenesulfonylamino)phenyl)-2-thiazolyl)amino)methyl)benzoic acid] |
| 230 °C (dec.) | O=C(O)CN(c1ccc(C(=O)O)cc1)c1nc(-c2ccc(NC(=O)c3ccc(C4CCCCC4)cc3)cc2)cs1 [Example 18, 4-(N-carboxymethyl-N-(4-(4-(4-cyclohexylbenzoylamino)phenyl)-2-thiazolyl)amino)benzoic acid] |
| 170 to 172 °C | CC(C)(c1ccc(C(=O)O)cc1)c1nc(-c2ccc(OCc3ccc(Cl)c(Cl)c3)cc2)cs1 [Example 90, 4-(1-(4-(4-(3,4-dichlorobenzyloxy)phenyl)-2-thiazolyl)-1-methylethyl)benzoic acid] |
| 250 °C (dec.) | CC(C)(C)c1ccc(C(=O)Nc2ccc(-c3csc(Nc4ccc(C(=O)O)cc4)n3)cc2)cc1 [Example 5, 4-(4-(4-(4-tert-butylbenzoylamino)phenyl)-2-thiazolylamino)benzoic acid] |
| 270 °C (dec.) | O=C(O)c1ccc(COc2ccc(-c3csc(Cc4ccc(C(=O)O)cc4)n3)cc2)cc1 [Example 49, 4-(4-(4-(4-carboxybenzyloxy)phenyl)-2-thiazolylmethyl)benzoic acid] |
| 250 °C (dec.) | O=C(O)c1ccc(Nc2nc(-c3ccc(OCc4ccc(C5CCCCC5)cc4)cc3)cs2)cc1 [Example 21, 4-(4-(4-(4-cyclohexylbenzyloxy)phenyl)-2-thiazolylamino)benzoic acid] |
| 117 to 119 °C | O=C(O)c1ccc(CN(CC2CCCCC2)c2nc(-c3nc4ccc(OCc5ccccc5)cc4o3)cs2)cc1 [Example 220, 4-((N-(4-(6-benzyloxy-2-benzooxazolyl)-2-thiazolyl)-N-cyclohexylmethylamino)methyl)benzoic acid] |
| 208 to 211 °C | O=C(O)c1ccc(Nc2nc(-c3cc(Cl)ccc3OCc3ccccc3)cs2)cc1 [Example 148, 4-(4-(2-benzyloxy-5-chlorophenyl)-2-thiazolylamino)benzoic acid] |

Further lines, the compound ahead of its results:

| SMILES | melting point |
| --- | --- |
| O=C(O)c1ccc(N(CC2CCCCC2)c2nc(-c3nc4ccc(OCc5ccc(C(F)(F)F)cc5C(F)(F)F)cc4o3)cs2)cc1 [Example 189, 4-(N-(4-(6-(2,4-bis(trifluoromethyl)benzyloxy)-2-benzooxazolyl)-2-thiazolyl)-N-cyclohexylmethylamino)benzoic acid] | 213 to 214 °C |
| CCCCN(c1ccc(C(=O)O)cc1)c1nc(-c2cc(Cl)ccc2OCc2ccc(C(F)(F)F)cc2)cs1 [Example 182, 4-(N-butyl-N-(4-(5-chloro-2-(4-trifluoromethylbenzyloxy)phenyl)-2-thiazolyl)amino)benzoic acid] | 216 to 218 °C |
| O=C(O)c1ccc(CN(CC2CCCCC2)c2nc(-c3nc4ccc(OCCc5ccccc5)cc4o3)cs2)cc1 [Example 221, 4-((N-cyclohexylmethyl-N-(4-(6-phenethyloxy-2-benzooxazolyl)-2-thiazolyl)amino)methyl)benzoic acid] | 105 to 108 °C |
| O=C(O)c1ccc(CN(CCC2CCCCC2)c2nc(-c3cc(Cl)ccc3OCc3ccc(C(F)(F)F)cc3)cs2)cc1 [Example 165, 4-((N-(4-(5-chloro-2-(4-trifluoromethylbenzyloxy)phenyl)-2-thiazolyl)-N-(2-cyclohexylethyl)amino)methyl)benzoic acid] | 171 to 172 °C |
| O=C(O)c1ccc(N(CCC2CCCCC2)c2nc(-c3nc4ccc(OCc5ccc(Cl)c(Cl)c5)cc4o3)cs2)cc1 [Example 184, 4-(N-(2-cyclohexylethyl)-N-(4-(6-(3,4-dichlorobenzyloxy)-2-benzooxazolyl)-2-thiazolyl)amino)benzoic acid] | 195 to 197 °C |
| CC(C)N(c1ccc(C(=O)[O-])cc1)c1nc(-c2ccc(NC(=O)c3ccc(N4CCN(C)CC4)cc3)cc2)cs1.[Na+] [Example 37, sodium 4-(N-isopropyl-N-(4-(4-(4-(4-methyl-1-piperazinyl)benzoylamino)phenyl)-2-thiazolyl)amino)benzoate] | 230 °C (dec.) |
| CN(Cc1ccc(C(=O)O)cc1)c1nc(-c2ccc(OCc3ccc(C4CCCCC4)cc3)cc2)cs1.O=S(=O)(O)O | 182 to 183 °C |
| O=C(O)c1ccc(N(CCC2CCCCC2)c2nc(-c3cc(Cl)ccc3OCc3ccccc3)cs2)cc1 [Example 152, 4-(N-(4-(2-benzyloxy-5-chlorophenyl)-2-thiazolyl)-N-(2-cyclohexylethyl)amino)benzoic acid] | 160 to 163 °C |
| COc1ccc(OCc2ccccc2)c(-c2csc(N(CCC3CCCCC3)c3ccc(C(=O)O)cc3)n2)c1 [Example 169, 4-(N-(4-(2-benzyloxy-5-methoxyphenyl)-2-thiazolyl)-N-(2-cyclohexylethyl)amino)benzoic acid] | 132 to 137 °C |
| O=C(O)c1ccc(N(CC2CCCCC2)c2nc(-c3cccc(OCc4ccc(C5CCCCC5)cc4)c3)cs2)cc1 [Example 142, 4-(N-(4-(3-(4-cyclohexylbenzyloxy)phenyl)-2-thiazolyl)-N-cyclohexylmethylamino)benzoic acid] | 195 to 197 °C |
| O=C(O)c1cccc(N(CCC2CCCCC2)c2nc(-c3cc(Cl)ccc3OCc3ccccc3)cs2)c1 [Example 172, 3-(N-(4-(2-benzyloxy-5-chlorophenyl)-2-thiazolyl)-N-(2-cyclohexylethyl)amino)benzoic acid] | 170 to 171 °C |
| COc1ccc(OCc2ccc(C(F)(F)F)cc2)c(-c2csc(Nc3ccc(C(=O)O)cc3OCCC3CCCCC3)n2)c1 [Example 171, 3-(2-cyclohexylethoxy)-4-(4-(5-methoxy-2-(4-trifluoromethylbenzyloxy)phenyl)-2-thiazolylamino)benzoic acid] | 111 to 114 °C |
| O=C(O)c1ccc(Nc2nc(-c3cc(Cl)ccc3OCc3ccccc3)cs2)c(OCCC2CCCCC2)c1 [Example 150, 4-(4-(2-benzyloxy-5-chlorophenyl)-2-thiazolylamino)-3-(2-cyclohexylethoxy)benzoic acid] | 230 °C (dec.) |
| CC(C)c1ccc(COc2ccc(Cl)cc2-c2csc(N(CCC3CCCCC3)c3ccc(C(=O)O)cc3)n2)cc1 [Example 176, 4-(N-(4-(5-chloro-2-(4-isopropylbenzyloxy)phenyl)-2-thiazolyl)-N-(2-cyclohexylethyl)amino)benzoic acid] | 190 to 192 °C |
| O=C(O)c1cccc(N(CC2CCCCC2)c2nc(-c3cc(Cl)ccc3OCc3ccccc3)cs2)c1 [Example 181, 3-(N-(4-(2-benzyloxy-5-chlorophenyl)-2-thiazolyl)-N-cyclohexylmethylamino)benzoic acid] | 98 to 100 °C |
| COc1cc(COc2ccc3nc(-c4csc(N(CC5CCCCC5)c5ccc(C(=O)O)cc5)n4)oc3c2)cc(OC)c1 [Example 191, 4-(N-cyclohexylmethyl-N-(4-(6-(3,5-dimethoxybenzyloxy)-2-benzooxazolyl)-2-thiazolyl)amino)benzoic acid] | 160 to 162 °C |
